# Results reported in PubChem BioAssay (NCI).
# Where “and” joins values, the source holds several entries; their conditions need not be identical. Equal values may be shown once.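 Cultured in 96-well plates, cells were exposed to test compound for 48 hours across five concentrations. GI50 is the concentration that inhibits growth by half. Definition used: TGI = concentration required for complete inhibition of growth.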
# What was measured:
# Test in all cases: growth of human tumour cells (NCI), 48 h
# MDA-MB-468 breast = tested on: MDA-MB-468 breast
# MDA-MB-231 breast = tested on: MDA-MB-231 breast
# SK-MEL-28 melanoma = tested on: SK-MEL-28 melanoma
# HT29 colon = tested on: HT29 colon
# OVCAR-8 ovarian = tested on: OVCAR-8 ovarian
# HS 578T breast = tested on: HS 578T breast
# SW-620 colon = tested on: SW-620 colon
# CCRF-CEM leukemia = tested on: CCRF-CEM leukemia
# SNB-19 CNS = tested on: SNB-19 CNS
# OVCAR-3 ovarian = tested on: OVCAR-3 ovarian
# UACC-62 melanoma = tested on: UACC-62 melanoma
# SNB-75 CNS = tested on: SNB-75 CNS
# MALME-3M melanoma = tested on: MALME-3M melanoma
# CAKI-1 renal = tested on: CAKI-1 renal
# KM12 colon = tested on: KM12 colon
# SK-OV-3 ovarian = tested on: SK-OV-3 ovarian
# SF-539 CNS = tested on: SF-539 CNS
# SF-295 CNS = tested on: SF-295 CNS
# HOP-92 NSCLC = tested on: HOP-92 NSCLC
# HCT-116 colon = tested on: HCT-116 colon
# NCI-H522 lung = tested on: NCI-H522 lung
# OVCAR-5 ovarian = tested on: OVCAR-5 ovarian
# UO-31 renal = tested on: UO-31 renal
# SF-268 CNS = tested on: SF-268 CNS
# T-47D breast = tested on: T-47D breast
# HOP-62 NSCLC = tested on: HOP-62 NSCLC
# RXF 393 renal = tested on: RXF 393 renal
# U251 CNS = tested on: U251 CNS
# PC-3 prostate = tested on: PC-3 prostate
# SN12C renal = tested on: SN12C renal
# ACHN renal = tested on: ACHN renal
# K-562 leukemia = tested on: K-562 leukemia
# NCI-H460 lung = tested on: NCI-H460 lung
# M14 melanoma = tested on: M14 melanoma
# BT-549 breast = tested on: BT-549 breast
# SR leukemia = tested on: SR leukemia
# OVCAR-4 ovarian = tested on: OVCAR-4 ovarian
# HL-60(TB) leukemia = tested on: HL-60(TB) leukemia
# COLO 205 colon = tested on: COLO 205 colon
# TK-10 renal = tested on: TK-10 renal
# MDA-MB-435 = tested on: MDA-MB-435
# SK-MEL-2 melanoma = tested on: SK-MEL-2 melanoma
# SK-MEL-5 melanoma = tested on: SK-MEL-5 melanoma
# HCT-15 colon = tested on: HCT-15 colon
# MOLT-4 leukemia = tested on: MOLT-4 leukemia
# HCC-2998 colon = tested on: HCC-2998 colon
# RPMI-8226 leukemia = tested on: RPMI-8226 leukemia
# 786-0 renal = tested on: 786-0 renal
# A549 NSCLC = tested on: A549 NSCLC
# EKVX NSCLC = tested on: EKVX NSCLC
# A498 renal = tested on: A498 renal
# IGROV1 ovarian = tested on: IGROV1 ovarian
# NCI-H23 lung = tested on: NCI-H23 lung
# NCI-H226 lung = tested on: NCI-H226 lung
# UACC-257 melanoma = tested on: UACC-257 melanoma
# MCF7 breast = tested on: MCF7 breast
# LOX IMVI melanoma = tested on: LOX IMVI melanoma
# DU-145 prostate = tested on: DU-145 prostate
structure (smiles),measurement,setting,value
COC1=CC(c2ccc[nH]2)=N/C1=C\c1[nH]c(C)c(C(=O)Oc2ccccc2)c1C,GI50,MDA-MB-468 breast,0.368 µM
same,TGI,MDA-MB-468 breast,1.94 µM
CN(C)c1ccc(/C=C(\C#N)c2ccccc2)cc1,GI50,MDA-MB-468 breast,0.34 µM and 0.293 µM and 0.728 µM
COc1ccc(CN2C(=O)/C(=C\C(=O)c3ccc(OCCN4CCCC4)cc3)c3ccccc32)cc1,GI50,MDA-MB-468 breast,2.07 µM
same,TGI,MDA-MB-468 breast,4.57 µM
O=c1c2cccc(F)c2sc2c(NCCCNCCO)nc3ccccc3c12,GI50,MDA-MB-468 breast,1.63 µM
same,TGI,MDA-MB-468 breast,3.26 µM
COc1cc(N2CCN(C(C)C)CC2)ccc1Nc1nc(Nc2ccc(F)cc2C(=O)NCC(O)CO)c2cc[nH]c2n1 (stereo not given),GI50,MDA-MB-468 breast,4.46 µM
same,TGI,MDA-MB-468 breast,20.5 µM
O=C(O)c1ccc(NCc2nc3ccccc3[nH]2)cc1,GI50,MDA-MB-468 breast,> 100 µM
same,TGI,MDA-MB-468 breast,> 100 µM
Cc1cc2c(C(=O)NCC#N)cccc2n1-c1nc2c(c(NCc3ccccc3)n1)CCCC2,GI50,MDA-MB-468 breast,0.206 µM
same,TGI,MDA-MB-468 breast,0.422 µM
COc1ccc(Cc2cc(OC)c(OC)c(OC)c2)cc1,GI50,MDA-MB-468 breast,0.312 µM
same,TGI,MDA-MB-468 breast,> 100 µM
CC(C)C(=O)Nc1ccc(-c2nc(-c3cccc(OCCN4CCOCC4)c3)c(-c3ccnc(Br)c3)[nH]2)cc1,GI50,MDA-MB-468 breast,1.89 µM
same,TGI,MDA-MB-468 breast,4.04 µM
CC(C)n1nc(C#Cc2cccc(O)c2)c2c(N)ncnc21,GI50,MDA-MB-468 breast,3.62 µM and 2.22 µM
same,TGI,MDA-MB-468 breast,23.8 µM and 5.51 µM
CCCCCCNC(=O)Oc1ccc(/C(=C(/C)c2ccc(Cl)cc2)c2ccc(OCCN3CCCC3)cc2)cc1,GI50,MDA-MB-468 breast,1.66 µM
same,TGI,MDA-MB-468 breast,3.17 µM
CCNC(=O)Oc1ccc(/C(=C(\C)c2ccc(Cl)cc2)c2ccc(OCCN(CC)CC)cc2)cc1,GI50,MDA-MB-468 breast,3.63 µM
same,TGI,MDA-MB-468 breast,14.6 µM
COc1ccc(C2CC(c3ccccc3)=NN2C(=O)c2cc(OC)c(OC)c(OC)c2)cc1O (stereo not given),GI50,MDA-MB-468 breast,0.223 µM
same,TGI,MDA-MB-468 breast,0.613 µM
COc1cc(CNC(=O)/C=C/c2ccc3c(c2)OCO3)ccc1OCc1cn(-c2cccc(C(F)(F)F)c2)nn1,GI50,MDA-MB-231 breast,4.58 µM
same,TGI,MDA-MB-231 breast,17.1 µM
same,GI50,SK-MEL-28 melanoma,8.84 µM
same,TGI,SK-MEL-28 melanoma,21.7 µM
same,GI50,HT29 colon,14.9 µM
same,TGI,HT29 colon,36.1 µM
same,GI50,OVCAR-8 ovarian,3.91 µM
same,TGI,OVCAR-8 ovarian,15.4 µM
same,GI50,HS 578T breast,4.39 µM
same,TGI,HS 578T breast,24.8 µM
same,GI50,SW-620 colon,5.86 µM
same,TGI,SW-620 colon,22.5 µM
same,GI50,CCRF-CEM leukemia,32.1 µM
same,TGI,CCRF-CEM leukemia,> 100 µM
same,GI50,SNB-19 CNS,13.2 µM
same,TGI,SNB-19 CNS,27.9 µM
same,GI50,OVCAR-3 ovarian,3.31 µM
same,TGI,OVCAR-3 ovarian,11.6 µM
same,GI50,UACC-62 melanoma,11 µM
same,TGI,UACC-62 melanoma,23.4 µM
same,GI50,SNB-75 CNS,1.62 µM
same,TGI,SNB-75 CNS,5.37 µM
same,GI50,MALME-3M melanoma,2.44 µM
same,TGI,MALME-3M melanoma,9.61 µM
same,GI50,CAKI-1 renal,5.39 µM
same,TGI,CAKI-1 renal,18.5 µM
same,GI50,KM12 colon,15.5 µM
same,TGI,KM12 colon,43 µM
same,GI50,SK-OV-3 ovarian,16.3 µM
same,TGI,SK-OV-3 ovarian,36.5 µM
same,GI50,SF-539 CNS,3.54 µM
same,TGI,SF-539 CNS,12.7 µM
same,GI50,SF-295 CNS,4.84 µM
same,TGI,SF-295 CNS,17.8 µM
same,GI50,HOP-92 NSCLC,2.61 µM
same,TGI,HOP-92 NSCLC,8.28 µM
same,GI50,MDA-MB-468 breast,10 µM
same,TGI,MDA-MB-468 breast,22.8 µM
same,GI50,HCT-116 colon,3.83 µM
same,TGI,HCT-116 colon,14.9 µM
same,GI50,NCI-H522 lung,9.78 µM
same,TGI,NCI-H522 lung,23.7 µM
same,GI50,OVCAR-5 ovarian,14.5 µM
same,TGI,OVCAR-5 ovarian,31.8 µM
same,GI50,UO-31 renal,2.6 µM
same,TGI,UO-31 renal,10.1 µM
same,GI50,SF-268 CNS,12 µM
same,TGI,SF-268 CNS,34.8 µM
same,GI50,T-47D breast,3.27 µM
same,TGI,T-47D breast,26.6 µM
same,GI50,HOP-62 NSCLC,7.29 µM
same,TGI,HOP-62 NSCLC,26 µM
same,GI50,RXF 393 renal,2.93 µM
same,TGI,RXF 393 renal,9.87 µM
same,GI50,U251 CNS,4.5 µM
same,TGI,U251 CNS,17.6 µM
same,GI50,PC-3 prostate,13.4 µM
same,TGI,PC-3 prostate,29.3 µM
same,GI50,SN12C renal,9.04 µM
same,TGI,SN12C renal,27.6 µM
same,GI50,ACHN renal,5.24 µM
same,TGI,ACHN renal,18.5 µM
same,GI50,K-562 leukemia,17.5 µM
same,TGI,K-562 leukemia,> 100 µM
same,GI50,NCI-H460 lung,3.28 µM
same,TGI,NCI-H460 lung,11.6 µM
same,GI50,M14 melanoma,10.4 µM
same,TGI,M14 melanoma,23.3 µM
same,GI50,BT-549 breast,4.83 µM
same,TGI,BT-549 breast,19.3 µM
same,GI50,SR leukemia,21.3 µM
same,TGI,SR leukemia,> 100 µM
same,GI50,OVCAR-4 ovarian,2.9 µM
same,TGI,OVCAR-4 ovarian,10.3 µM
same,GI50,HL-60(TB) leukemia,23.6 µM
same,TGI,HL-60(TB) leukemia,> 100 µM
same,GI50,COLO 205 colon,10.4 µM
same,TGI,COLO 205 colon,25 µM
same,GI50,TK-10 renal,13.5 µM
same,TGI,TK-10 renal,32.2 µM
same,GI50,MDA-MB-435,8.25 µM
same,TGI,MDA-MB-435,23.2 µM
same,GI50,SK-MEL-2 melanoma,10.1 µM
same,TGI,SK-MEL-2 melanoma,22.8 µM
same,GI50,SK-MEL-5 melanoma,4.68 µM
same,TGI,SK-MEL-5 melanoma,16.4 µM
same,GI50,HCT-15 colon,5.19 µM
same,TGI,HCT-15 colon,26.6 µM
same,GI50,MOLT-4 leukemia,10.1 µM
same,TGI,MOLT-4 leukemia,> 100 µM
same,GI50,HCC-2998 colon,10.1 µM
same,TGI,HCC-2998 colon,23.7 µM
same,GI50,RPMI-8226 leukemia,18.5 µM
same,TGI,RPMI-8226 leukemia,> 100 µM
same,GI50,786-0 renal,6.2 µM
same,TGI,786-0 renal,19.2 µM
same,GI50,A549 NSCLC,3.71 µM
same,TGI,A549 NSCLC,15.9 µM
same,GI50,EKVX NSCLC,13.1 µM
same,TGI,EKVX NSCLC,29.5 µM
same,GI50,A498 renal,5.32 µM
same,TGI,A498 renal,19.1 µM
same,GI50,IGROV1 ovarian,15.3 µM
same,TGI,IGROV1 ovarian,32.7 µM
same,GI50,NCI-H23 lung,10.5 µM
same,TGI,NCI-H23 lung,23.9 µM
same,GI50,NCI-H226 lung,3.38 µM
same,TGI,NCI-H226 lung,14.7 µM
same,GI50,UACC-257 melanoma,10.8 µM
same,TGI,UACC-257 melanoma,25.4 µM
same,GI50,MCF7 breast,4.23 µM
same,TGI,MCF7 breast,22 µM
same,GI50,LOX IMVI melanoma,4.75 µM
same,TGI,LOX IMVI melanoma,19 µM
same,GI50,DU-145 prostate,10.7 µM
same,TGI,DU-145 prostate,28.4 µM
CC(C)(C)[Si](C)(C)OC1[C@@H](O[Si](C)(C)C(C)(C)C)[C@@H](CNC(=O)NC(=O)NC(=O)CCl)O[C@H]1n1cnc2c(NC(=O)Nc3ccccc3)ncnc21 (stereo not given in full),GI50,MDA-MB-468 breast,3.91 µM
same,TGI,MDA-MB-468 breast,10.5 µM
Cc1cncc(-c2nc(NCCc3c[nH]c4ccccc34)c3ncn(C(C)C)c3n2)c1,GI50,MDA-MB-468 breast,3.02 µM
same,TGI,MDA-MB-468 breast,10.9 µM
CCC1=C[C@@H]2CN(C1)Cc1c([nH]c3ccccc13)[C@@](C(=O)OC)(c1cc3c(cc1OC)N(C)[C@H]1[C@@](O)(C(=O)OC)[C@H](OC(C)=O)[C@]4(CC)C=CCN5CC[C@]31[C@@H]54)C2,GI50,MDA-MB-468 breast,< 0.01 µM
same,TGI,MDA-MB-468 breast,17 µM
COc1ccc(C(C)=C(c2ccc(OCCN(C)C)cc2)c2ccc(OCCN(C)C)cc2)cc1,GI50,MDA-MB-468 breast,0.489 µM
same,TGI,MDA-MB-468 breast,1.44 µM
CS(=O)(=O)O[C@H]1C(=O)N(c2cc3c4ccccc4ccc3c3ccccc23)[C@@H]1c1ccccn1,GI50,MDA-MB-468 breast,0.269 µM
same,TGI,MDA-MB-468 breast,5.27 µM
C[C@]12CCCN1CC1=NNC(=O)c3cc(F)cc4[nH]c2c1c34,GI50,MDA-MB-468 breast,13.5 µM
same,TGI,MDA-MB-468 breast,34.5 µM
C[C@@H](Oc1ccc(Oc2cnc3ccc(Cl)cc3n2)cc1)C(=O)O,GI50,MDA-MB-468 breast,39.9 µM
same,TGI,MDA-MB-468 breast,> 100 µM
